Columns and labels:
[1] = target: T1, human adenosine A1 receptor (Homo sapiens, UniProt P30542); assay: Reporter gene assay (CRE/SPAP) in CHO cells, agonist potency relative to NECA, adenosine A1 receptor; type: cell-based; parameters: key: equipotent concentration ratio, NECA = 1; conditions: ECR = equipotent concentration ratio relative to NECA = 1, inhibition of forskolin-stimulated SPAP production
T1 construct: expressed in transfected cells; host or cells: Chinese hamster ovary (CHO) cells with CRE/SPAP/HYG reporter elements
T1 sequence (P30542 1-326): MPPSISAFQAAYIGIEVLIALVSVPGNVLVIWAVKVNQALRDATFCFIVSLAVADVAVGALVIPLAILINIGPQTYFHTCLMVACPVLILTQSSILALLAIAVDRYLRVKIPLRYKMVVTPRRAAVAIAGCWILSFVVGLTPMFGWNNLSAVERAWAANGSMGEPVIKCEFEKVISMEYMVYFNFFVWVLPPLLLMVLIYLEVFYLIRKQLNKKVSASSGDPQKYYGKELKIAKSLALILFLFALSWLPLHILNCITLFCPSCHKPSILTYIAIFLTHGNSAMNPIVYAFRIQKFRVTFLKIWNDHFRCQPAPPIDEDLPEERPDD
Experimental: (§1) Reporter Gene Experiments
(§2) Agonist activity was measured in Chinese hamster ovary (CHO) cells containing the CRE/SPAP/HYG (CRE=cyclic AMP response element; HYG=hygromycin resistance; SPAP=secreted placental alkaline phosphatase) reporter gene elements, which upon stimulation of cAMP levels produced SPAP. A cell line was used, which was stably transfected with either the human adenosine A1 receptor or the human adenosine A3 receptor in addition to the above elements. Cells were plated out in 96-well plates in culture medium and incubated at 37° C. for 1 hour. For measurement of potency, agonists were added to the appropriate wells at a concentration range of approximately 10^−10- 10^−5M. 15Min later, cAMP levels were stimulated by addition of a maximal concentration of forskolin. All cells were then incubated for a further 5 hours at 37° C., and cooled to room temperature, after which a substrate for the phosphatase (para-nitrophenol phosphate, pNPP), which is converted by SPAP to a coloured reagent) was then added and the 96-well -plates were read in a plate reader. From these readings, the concentration-dependence of the inhibition by the agonist for forskolin-stimulated SPAP production can be calculated. One of the agonists tested on each 96-well plate was the standard non-selective agonist, N-ethylcarboxamidoadenosine (NECA), and the potency of all test agonists is expressed relative to that of the NECA standard.
(§3) (ECR=equipotent concentration ratio relative to NECA=1)

[2] = target: T2, human adenosine A3 receptor (Homo sapiens, UniProt P0DMS8); assay: Reporter gene assay (CRE/SPAP) in CHO cells, agonist potency relative to NECA, adenosine A3 receptor; type: cell-based; parameters: key: equipotent concentration ratio, NECA = 1; conditions: ECR = equipotent concentration ratio relative to NECA = 1, inhibition of forskolin-stimulated SPAP production
T2 construct: expressed in transfected cells; host or cells: Chinese hamster ovary (CHO) cells with CRE/SPAP/HYG reporter elements
T2 sequence (P0DMS8 1-318): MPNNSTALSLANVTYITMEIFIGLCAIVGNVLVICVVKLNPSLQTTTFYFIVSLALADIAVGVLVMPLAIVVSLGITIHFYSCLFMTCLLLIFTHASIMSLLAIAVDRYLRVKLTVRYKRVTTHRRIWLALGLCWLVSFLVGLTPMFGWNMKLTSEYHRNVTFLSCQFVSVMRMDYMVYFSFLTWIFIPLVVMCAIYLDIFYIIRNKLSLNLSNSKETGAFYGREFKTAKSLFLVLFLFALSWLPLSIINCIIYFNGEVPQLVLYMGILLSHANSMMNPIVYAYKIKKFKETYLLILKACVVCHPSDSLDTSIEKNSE
Experimental: as §1, §2, §3

SMILES	Adenosine A1 receptor ECR* [1]	Adenosine A3 receptor ECR* [2]
CC(C)(C)c1nnc([C@H]2O[C@@H](n3cnc4c(NC5CCOCC5)ncnc43)[C@H](O)[C@@H]2O)o1 [Example 3, (2S,3S,4R,5R)-2-(5-tert-Butyl-[1,3,4]oxadiazol-2-yl)-5-[6-(tetrahydro-pyran-4-ylamino)-purin-9-yl]-tetrahydro-furan-3,4-diol]	4.16	152
CCOC(=O)N1CCC(Nc2ncnc3c2ncn3[C@@H]2O[C@H](c3nnc(C(C)(C)C)o3)[C@@H](O)[C@H]2O)CC1 [Example 4, 4-{9-[5S-(5-tert-Butyl-[1,3,4]oxadiazol-2-yl)-3R,4S-dihydroxy-tetrahydro-furan-2R-yl]-9H-purin-6-ylamino}-piperidine-1-carboxylic acid ethyl ester]	5.65	152
CC(C)c1nnc([C@H]2O[C@@H](n3cnc4c(NC5CCOCC5)ncnc43)[C@H](O)[C@@H]2O)o1 [Example 6, (2S,3S,4R,5R)-2-(5-Isopropyl-[1,3,4]oxadiazol-2-yl)-5-[6-(tetrahydro-pyran-4-ylamino)-purin-9-yl]-tetrahydro-furan-3,4-diol]	1.71	134
CCOC(=O)N1CCC(Nc2ncnc3c2ncn3[C@@H]2O[C@H](c3nnc(C4CC4)o3)[C@@H](O)[C@H]2O)CC1 [Example 12, 4-{9-[5S-(5-Cyclopropyl-[1,3,4]oxadiazol-2-yl)-3R,4S-dihydroxy-tetrahydro-furan-2R-yl]-9H-purin-6-ylamino}-piperidine-1-carboxylic acid ethyl ester]	2.28	254
CC(C)(C)c1nnc([C@H]2O[C@@H](n3cnc4c(Nc5ccc(Cl)cc5F)ncnc43)[C@H](O)[C@@H]2O)o1 [Example 14, (2S,3S,4R,5R)-2-(5-tert-Butyl-[1,3,4]oxadiazol-2-yl)-5-[6-(4-chloro-2-fluoro-phenylamino)-purin-9-yl]-tetrahydro-furan-3,4-diol]	5.8	1066.71
CCc1cnc([C@H]2O[C@@H](n3cnc4c(NC5CCOCC5)ncnc43)[C@H](O)[C@@H]2O)o1 [Example 16, (2S,3S,4R,5R)-2-(5-Ethyl-oxazol-2-yl)-5-[6-(tetrahydro-pyran-4-ylamino)-purin-9-yl]-tetrahydro-furan-3,4-diol]	9.6	201
O[C@@H]1[C@H](O)[C@@H](c2nc(C3CC3)no2)O[C@H]1n1cnc2c(N[C@H]3CCC[C@@H]3O)ncnc21 [Example 19, (2S,3S,4R,5R)-2-(3-Cyclopropyl-[1,2,4]oxadiazol-5-yl)-5-[6-(2S-hydroxy-cyclopent-(S)-ylamino)-purin-9-yl]-tetrahydro-furan-3,4-diol]	5.15	172
CC(C)(C)c1noc([C@H]2O[C@@H](n3cnc4c(N[C@H]5CCC[C@@H]5O)ncnc43)[C@H](O)[C@@H]2O)n1 [Example 21, (2S,3S,4R,5R)-2-(3-tert-Butyl-[1,2,4]oxadiazol-5-yl)-5-[6-(2S-hydroxy-cyclopent-(S)-ylamino)-purin-9-yl]-tetrahydro-furan-3,4-diol]	23.26	321
O[C@@H]1[C@H](O)[C@@H](c2nc(C3CC3)no2)O[C@H]1n1cnc2c(NC3CCOCC3)ncnc21 [Example 22, (2S,3S,4 R,5R)-2-(3-Cyclopropyl-[1,2,4]oxadiazol-5-yl)-5-[6-(tetrahydro-pyran4-ylamino)-purin-9-yl]-tetrahydro-furan-3,4-diol]	8.75	423
CC(C)(C)c1cc([C@H]2O[C@@H](n3cnc4c(NC5CCOCC5)ncnc43)[C@H](O)[C@@H]2O)on1 [Example 28, (2S,3S,4R,5R)-2-(3-tert-Butyl-isoxazol-5-yl)-5-[6-(tetrahydro-pyran-4-ylamino)-purin-9-yl]-tetrahydro-furan-3,4-diol]	0.42	44.7
CCOC(=O)N1CCC(Nc2ncnc3c2ncn3[C@@H]2O[C@H](c3nc(C)no3)[C@@H](O)[C@H]2O)CC1 [Example 37, ethyl 4-({9-[(2R,3R,4S,5S)-3,4-dihydroxy-5-(3-methyl-1,2,4-oxadiazol-5-yl)tetrahydrofuran-2-yl]-9H-purin-6-yl}amino)piperidine-1-carboxylate]	4.19	507
Cc1cccc(NS(=O)(=O)CCNc2ncnc3c2ncn3[C@@H]2O[C@H](c3nnc(C(C)(C)C)o3)[C@@H](O)[C@H]2O)c1 [Example 126, 2-[(9-{(2R,3R,4S,5S)-5-[5-(tert-butyl)-1,3,4-oxadiazol-2-yl]-3,4-dihydroxytetrahydrofuran-2-yl}-9H-purin-6-yl)amino]-N-(3-methylphenyl)ethanesulfonamide]	13.9	–
CCc1cc([C@H]2O[C@@H](n3cnc4c(NC5CCOCC5)ncnc43)[C@H](O)[C@@H]2O)on1 [Example 135, (2S,3S,4R,5R)-2-(3-ethylisoxazol-5-yl)-5-[6-(tetrahydro-2H-pyran-4-ylamino)-9H-purin-9-yl]tetrahydrofuran-3,4-diol]	0.48	–
CCc1cc([C@H]2O[C@@H](n3cnc4c(N[C@H]5CCC[C@@H]5O)ncnc43)[C@H](O)[C@@H]2O)on1 [Example 136, (2S,3S,4R,5R)-2-(3-ethylisoxazol-5-yl)-5-(6-{[(1S,2S)-2-hydroxycyclopentyl]amino}-9H-purin-9-yl)tetrahydrofuran-3,4-diol]	1.95	–
CCOC(=O)N1CCC(Nc2ncnc3c2ncn3[C@@H]2O[C@H](c3cc(CC)no3)[C@@H](O)[C@H]2O)CC1 [Example 138, ethyl 4-({9-[(2R,3R,4S,5S)-5-(3-ethylisoxazol-5-yl)-3,4-dihydroxytetrahydrofuran-2-yl]-9H-purin-6-yl}amino)piperidine-1-carboxylate]	1.31	–
Cc1cc([C@H]2O[C@@H](n3cnc4c(Nc5ccc(Cl)cc5F)ncnc43)[C@H](O)[C@@H]2O)on1 [Example 144, (2R,3R,4S,5S)-2-[6-(4-chloro-2-fluoroanilino)-9H-purin-9-yl]-5-(3-methylisoxazol-5-yl)tetrahydrofuran-3,4-diol]	2.8	–
CCCc1cc([C@H]2O[C@@H](n3cnc4c(Nc5ccc(Cl)cc5F)ncnc43)[C@H](O)[C@@H]2O)on1 [Example 145, (2R,3R,4S,5S)-2-[6-(4-chloro-2-fluoroanilino)-9H-purin-9-yl]-5-(3-propylisoxazol-5-yl)tetrahydrofuran-3,4-diol]	24.9	–
O[C@@H]1[C@H](O)[C@@H](c2cc(Br)no2)O[C@H]1n1cnc2c(Nc3ccc(Cl)cc3F)ncnc21 [Example 164, (2S,3S,4R,5R)-2-(3-bromoisoxazol-5-yl)-5-[6-(4-chloro-2-fluoroanilino)-9H-purin-9-yl]tetrahydrofuran-3,4-diol]	4.3	–
O[C@@H]1[C@H](O)[C@@H](c2nnc(C(F)(F)F)o2)O[C@H]1n1cnc2c(N[C@H]3CCC[C@@H]3O)ncnc21 [Example 179, (2R,3R,4S,5S)-2-(6-{[(1S,2S)-2-hydroxy-cyclopentyl]-amino}-9H-purin-9-yl)-5-[5-(trifluoromethyl)-1,3,4-oxadiazol-2-yl]-tetrahydrofuran-3,4-diol]	12.6	–
Cc1nnc([C@H]2O[C@@H](n3cnc4c(Nc5ccc(Cl)cc5F)ncnc43)[C@H](O)[C@@H]2O)o1 [Example 181]	8.57	–
O[C@@H]1[C@H](O)[C@@H](c2cc(C3CC3)no2)O[C@H]1n1cnc2c(Nc3ccc(Cl)cc3F)ncnc21 [Example 182, (2R,3R,4S,5S)-2-[6-(4-chloro-2-fluoroanilino)-9H-purin-9-yl]-5-(3-cyclopropyl-isoxazol-5-yl)-tetrahydrofuran-3,4-diol]	3.48	–
